Our source for the ΔTm and Activity values is ChEMBL document CHEMBL4184162, “Hybrid DNA i-motif: Aminoethylprolyl-PNA (pC5) enhance the stability of DNA (dC5) i-motif structure” (Bioorg Med Chem Lett, 2017).

The source made the active and inactive calls. The rule behind the calls is not given here.

A short description of assay [1]: Stabilization of i-motif DNA (unknown origin) assessed as change in melting temperature at 22.5 uM at pH 5 in presence of DC5 by UV-based analysis.
A short description of assay [2]: Stabilization of i-motif DNA (unknown origin) assessed as change in melting temperature at 22.5 uM at pH 4.5 in presence of DC5 by UV-based analysis.
A short description of assay [3]: Stabilization of i-motif DNA (unknown origin) at 22.5 uM at pH 4 to 6 by CD-spectra analysis.
The nature of assay [4]: Stabilization of i-motif DNA (unknown origin) assessed as change in melting temperature at 22.5 uM at pH 5.5 in presence of DC5 by UV-based analysis.
Assay [5] is described as follows: Stabilization of i-motif DNA (unknown origin) assessed as change in melting temperature at 22.5 uM at pH 6 in presence of DC5 by UV-based analysis.

In the case of `CC(=O)NCCN1C[C@@H](n2ccc(N)nc2=O)C[C@H]1C(=O)NCCN1C[C@@H](n2ccc(N)nc2=O)C[C@H]1C(=O)NCCN1C[C@@H](n2ccc(N)nc2=O)C[C@H]1C(=O)NCCN1C[C@@H](n2ccc(N)nc2=O)C[C@H]1C(=O)NCCN1C[C@@H](n2ccc(N)nc2=O)C[C@H]1C(=O)NCCC(N)=O`, the shift in melting temperature (ΔTm) was 17.9 °C in assay [1], 15.3 °C in assay [2], 8.85 °C in assay [4] and 13.2 °C in assay [5]. Moreover, the outcome in assay [3] was Active.
